Experimental data: US20190029637A1, “A WEARABLE SENSOR, AND METHOD, TO MONITOR ANTI-COAGULATION THERAPY” (The Regents of the University of California, priority 2016, published 2019)

Assays:
Antithrombin = Antithrombin (Homo sapiens, UniProt P01008); conditions: cited from earlier work
[1] = Photoacoustic spectra of contaminated heparin in the presence of methylene blue; conditions: 5 wt. % contaminated heparin
Text: In one exemplary implementation, the photoacoustic imaging system used for measurements is a Vevo 2100 commercial instrument (Visualsonics). The scanner is equipped with a 21 MHz-centered transducer (LZ250) and a Q-switched Nd:YAG laser. The laser uses an optical parameteric oscillator and second harmonic generator to generate a tunable laser between 680 and 970 nm with a 1 nm step size and a pulse of 4 to 6 ns at 20 Hz. The peak energy is 45±5 mJ at 20 Hz at the source. The full field-of-view is 14-23 mm wide. The acquisition rate is 5 frames per second. The samples were prepared in small tubing fixed in a self-developed phantom holder which was aligned at ˜10 mm under the transducer. The laser energy was calibrated and optimized using the build-in energy power meter and software before measurements. 100% laser energy was used with 21 MHz frequency and the gain was optimized from 10-40 dB to obtain 3D scans at 680-850 nm as well as photoacoustic spectra from 680 to 850 nm.
1×PBS solution was prepared via dissolving one PBS tablet into 200 mL deionized water. The 2 mM methylene blue was prepared fresh by dissolving reagent-grade powder in PBS followed by sonication for 30 minutes at 40 C and then filtering through 0.22 μm. The 0.4 mM methylene blue was prepared by dissolving 2 mM methylene blue with PBS. A batch of OSCS/heparin mixture that simulates OSCS contaminated heparin was prepared at the following steps: 100 μL of 50, 25, 5, 2.5, 0.5, 0.25 μg/mL OSCS, and PBS was added into 100 uL 1000 μg/mL heparin prepared in PBS solution, respectively. The working concentration of OSCS in the above solutions was 25, 12.5, 2.5, 1.25, 0.25, 0.125, 0.025, and 0 μg/mL OSCS, respectively, and the working concentration of heparin is 500 μg/mL. In other words, the heparin solution was contaminated by 5, 2.5, […], 0.05, 0.025, and 0%. The contrast signal of methylene blue/heparin mixture was optimized at the combination of 0.4 mM methylene blue and […]. […]
Data analysis were performed using the scanner's built-in software. […] The average and standard deviation were calculated. […]

[2] = Photoacoustic response of nanoparticle-bound methylene blue coating to heparin and protamine; conditions: 50 U/mL heparin-treated device, protamine 8 mg/mL
Experimental: The surface charge of these nanoparticle is −23 mV, which is too negative to allow association between the nanoparticle-bound dye and negatively charged heparin. Therefore, the charge of the particle was changed to produce a material that was both stable and responsive to heparin. To tune the nanoparticles, the same were treated with (3-mercaptopropyl) trimethoxysilane (MPTMS) to adjust the zeta potential to −15 mV (SSNP-SH). This material was used with agar gel to create a coating on a catheter tube.
More importantly, the methylene blue on these modified nanoparticles remain responsive to heparin with 51% more photoacoustic signal at 10 U/mL heparin than PBS for 1 h incubation. The signal enhancement was stable after constant imaging at 680 nm for 9 min (RSD<4%) This system was also reversible. When the 50 U/mL-treated device was reversed with protamine (8 mg/mL), the signal decreased by 42% versus no protamine treatment. The higher signal of the heparin-treated hybrid versus PBS-treated hybrid is likely due to interactions between methylene blue and heparin, which increases the photoacoustic signal and decreases diffusion of this complex and free methylene blue into solution.

Chain of Antithrombin (P01008 33-464): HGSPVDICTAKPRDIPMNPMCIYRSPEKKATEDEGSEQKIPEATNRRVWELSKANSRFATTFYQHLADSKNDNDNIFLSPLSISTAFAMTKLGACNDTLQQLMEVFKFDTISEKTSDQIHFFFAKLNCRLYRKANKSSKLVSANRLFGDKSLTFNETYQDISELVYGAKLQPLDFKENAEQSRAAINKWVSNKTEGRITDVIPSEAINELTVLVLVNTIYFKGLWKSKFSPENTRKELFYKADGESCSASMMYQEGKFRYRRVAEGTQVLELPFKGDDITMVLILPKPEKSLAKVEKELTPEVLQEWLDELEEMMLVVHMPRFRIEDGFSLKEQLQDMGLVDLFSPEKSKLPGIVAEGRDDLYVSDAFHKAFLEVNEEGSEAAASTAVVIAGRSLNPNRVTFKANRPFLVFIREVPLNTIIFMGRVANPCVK

| Substance | 715 nm peak amplified compared to pure heparin in methylene blue [1] [%] | other results |
| --- | --- | --- |
| heparin |  | increase of the activity of antithrombin (Antithrombin): 10^3 fold |
| chondroitin sulfate [CS] | 476 |  |
| protamine sulfate |  | signal decrease versus no protamine treatment [2]: 42% |
| dermatan sulfate [DS] | 475 |  |
| oversulfated chondroitin sulfate [OSCS] | 400 |  |
